According to patent publication US9522198B2, “Methods and compositions related to targeting tumors and wounds” (Sanford-Burnham Medical Research Institute, priority 2006, dated 2016):
“Also recorded” adds a separate entry of the source. Ends that are not written are not given here.

Experiments:
[1] = tested on: mouse femoral artery; assay: Homing to wire-injured femoral artery; type: in vivo
Method: (§1) The wire injury of the mouse femoral artery was induced as previously described (Komatsu, M. & Ruoslahti, E. (2005) Nat Med. (2005) 11:1346-1350). Thirty minutes after the wire injury, 250 μg of fluorescein-conjugated peptides were injected i.v. Muscle injuries were induced in mice by applying a crush injury to the quadriceps muscle, and 500 μg fluorescein-conjugated peptides were injected i.v. 48 hours later. Skin incisions were studied similarly. The mice were perfused through the heart 4 hours after the peptide injection, and tissues were excised, fixed in 4% paraformaldehyde, and embedded in OCT.

[2] = tested on: human umbilical venous endothelial cells (HUVECs); type: cell-based; details: HUVECs
Text: CLT1 contains a sequence of three consecutive hydrophobic residues, LII (leucine-isoleucine-isoleucine). This motif is very similar to the VII sequence (V, valine) which causes proteins to form large insoluble aggregates (Esteras-Chopo et al. 2005). […] The ability of CLT1 to aggregate proteins correlates with its cytotoxicity for human umbilical venous endothelial cells (HUVECs).

[3] = tested on: orthotopic MDA-MB-435 xenograft tumors; assay: Tumor homing of i.v. injected fluorescein-conjugated peptides, MDA-MB-435 xenografts; type: in vivo, mouse
Text: To determine whether the CLT peptides would recognize clotted plasma proteins in vivo, the peptides were synthesized as fluorescein conjugates and imaged their accumulation in tumors. Mice bearing orthotopic MDA-MB-435 xenograft tumors were intravenously injected with fluorescein-conjugated CLT1 (n=6), CLT2 (n=4), or a control peptide (n=4) with the sequence KAREC (SEQ ID NO: 5).
B16F1 mouse melanoma, Lewis lung carcinoma, C8161 human melanoma, MDA-MB-435 human breast cancer, and PPC-1 human prostate cancer cells (American Type Culture Collection) were maintained in RPMI or DMEM supplemented with 10% FCS. Human tumor cells (1×10^6) were injected into the mammary fat pad or the flank of nude BALB/c nu/nu mice to induce tumors. MMTV PyMT mice were provided by Dr. Robert Oshima (Burnham Institute for Medical Research, La Jolla, Calif.). The MMTV PyMT mice develop breast cancer under the influence of a polyoma middle T antigen driven by the mouse tumor virus promoter (Siegel, P. M., Ryan, E. D., Cardiff, R. D., Muller W. J. (1999) EMBO J., 18, 2149-64). B16F1 tumors induced by injecting 1×10^6 cells subcutaneously were grown in the flank of fibrinogen knock-out mice (Suh, T. T., Holmback, K., Jensen, N. J., Daugherty, C. C., Small, K., Simon, D. I., Potter, S., & Degen, J. L. (1995) Genes Dev. 9, 2020-2033), and of transgenic plasma fibronectin-deficient C57BL/6-Fn(f1/f1) Mx-Cre^+ (Sakai, T., Johnson, K. J., Murozono, M., Sakai, K., Magnuson, M. A., Wieloch, T., Cronberg, T., Isshiki, A., Erickson, H. P., & Fassler R. (2001) Nat. Med. 7, 324-30) and their wild type littermates. Deletion of the fibronectin gene in the liver was induced by poly(I):poly(C) (Yi, M., Sakai, T., Fassler, R., & Ruoslahti, E. (2003) Proc. Natl. Acad. Sci. USA. 100, 11435-11438). Frozen human tissues from clinical breast cancers were provided by the Western Division of the NCI Cooperative Human Tissue Network (Vanderbilt University Medical Center, Nashville, Tenn.).
Peptides were synthesized and conjugated to fluorescein isothiocyanate as described (Laakonen et al. PNAS 2004), and cyclized by exposure to air.
Imaging under a blue light, and examination of the distribution of fluorescein-conjugated peptides after tail vein injection have been described (Hoffman, R. M. (2005) Nature Reviews Cancer 5, 796-806; Laakkonen, P., Akerman, M. E., Biliran, H., Yang, M., Ferrer, F., Karpanen, T., Hoffman, R. M., & Ruoslahti E. (2004) Proc. Natl. Acad. Sci. USA 101, 9381-6).
The imaging methods are briefly described as follows: A Leica fluorescence stereomicroscope, model LZ12, equipped with a 50-W mercury lamp, was used for high-magnification imaging. Selective excitation of GFP was produced through a D425y60 band-pass filter and 470 DCXR dichroic mirror. Emitted fluorescence was collected through a long-pass filter GG475 (Chroma Technology, Brattleboro, Vt.) on a Hamamatsu C5810 3-chip cooled color charge-coupled device camera (Hamamatsu Photonics Systems, Bridgewater, N.J.). Images were processed for contrast and brightness and analyzed with the use of IMAGE PRO PLUS 3.1 software (Media Cybernetics, Silver Springs, Md.). Images of 1,024×724 pixels were captured directly on an IBM PC or continuously through video output on a high-resolution Sony VCR model SLV-R1000 (Sony, Tokyo). Imaging at lower magnification that visualized the entire animal was carried out in a light box illuminated by blue light fiber optics (Lightools Research, Encinitas, Calif.) and imaged by using the thermoelectrically cooled color charge-coupled device camera, as described above (Yang, M., Baranov, E., Jiang, P., Sun, F-X., Li, X-M., Li, L., Hasegawa, S., Bouvet, M., Al-Tuwaijri, M., Chishima, T., et al (2000) Proc. Natl. Acad. Sci. USA 97, 1206-11).
The mice were perfused through the heart 3 hours after the peptide injection and tissues removed for examination. […]

[4] = tested on: quadriceps muscle; assay: Homing to muscle crush injury; type: in vivo, mouse
Method: as §1

[5] = tested on: skin; assay: Homing to skin incision; type: in vivo, mouse
Method: as §1

[6] = tested on: mitochondrial membranes; details: concentration of 10 μM; cited from earlier work
[7] = target: T1, fibrinogen (Homo sapiens, UniProt P02671+P02675+P02679); details: reported, Akerman, Pilch et al. 2005; cited from earlier work
T1 sequence (P02671 20-629 limits assumed): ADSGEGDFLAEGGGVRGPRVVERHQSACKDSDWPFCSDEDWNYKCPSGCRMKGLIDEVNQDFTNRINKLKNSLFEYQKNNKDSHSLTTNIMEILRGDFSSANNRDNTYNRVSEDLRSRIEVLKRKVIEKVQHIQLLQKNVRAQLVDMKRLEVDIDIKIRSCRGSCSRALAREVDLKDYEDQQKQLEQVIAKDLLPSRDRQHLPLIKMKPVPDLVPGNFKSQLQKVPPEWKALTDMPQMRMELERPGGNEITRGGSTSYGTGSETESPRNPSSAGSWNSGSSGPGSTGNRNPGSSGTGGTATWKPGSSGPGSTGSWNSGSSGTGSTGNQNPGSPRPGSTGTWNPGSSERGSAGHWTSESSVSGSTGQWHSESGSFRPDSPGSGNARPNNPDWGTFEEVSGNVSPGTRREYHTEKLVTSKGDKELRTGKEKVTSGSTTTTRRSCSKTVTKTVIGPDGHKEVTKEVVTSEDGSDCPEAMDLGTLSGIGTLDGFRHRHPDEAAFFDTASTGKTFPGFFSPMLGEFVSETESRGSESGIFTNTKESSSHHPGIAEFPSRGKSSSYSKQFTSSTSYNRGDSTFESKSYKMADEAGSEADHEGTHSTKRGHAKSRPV
T1 sequence (P02675 31-491): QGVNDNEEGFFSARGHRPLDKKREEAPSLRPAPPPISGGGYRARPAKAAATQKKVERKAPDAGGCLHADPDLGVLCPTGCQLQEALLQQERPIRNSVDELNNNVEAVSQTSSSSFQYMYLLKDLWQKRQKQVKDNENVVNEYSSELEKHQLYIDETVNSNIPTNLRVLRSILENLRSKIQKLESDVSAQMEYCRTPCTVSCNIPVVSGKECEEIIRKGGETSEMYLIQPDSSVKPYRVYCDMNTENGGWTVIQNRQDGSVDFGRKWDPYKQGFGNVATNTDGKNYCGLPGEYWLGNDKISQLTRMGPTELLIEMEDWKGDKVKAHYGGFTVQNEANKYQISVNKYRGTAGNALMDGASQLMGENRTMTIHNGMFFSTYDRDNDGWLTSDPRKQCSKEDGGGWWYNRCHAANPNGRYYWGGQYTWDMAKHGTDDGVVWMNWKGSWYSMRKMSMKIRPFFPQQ
T1 sequence (P02679 27-453): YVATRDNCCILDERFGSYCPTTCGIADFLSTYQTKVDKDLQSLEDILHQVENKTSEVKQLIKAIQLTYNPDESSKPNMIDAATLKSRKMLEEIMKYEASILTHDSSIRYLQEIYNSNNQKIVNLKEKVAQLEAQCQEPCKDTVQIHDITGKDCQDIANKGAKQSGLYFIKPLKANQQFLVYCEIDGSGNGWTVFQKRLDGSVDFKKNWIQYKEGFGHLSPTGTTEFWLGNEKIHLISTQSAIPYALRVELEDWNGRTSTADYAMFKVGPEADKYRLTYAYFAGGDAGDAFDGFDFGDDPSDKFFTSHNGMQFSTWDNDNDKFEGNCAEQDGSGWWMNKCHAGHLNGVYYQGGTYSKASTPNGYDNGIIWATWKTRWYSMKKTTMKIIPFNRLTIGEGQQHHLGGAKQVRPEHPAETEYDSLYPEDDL

[8] = tested on: fibronectin; details: reported, Akerman, Pilch et al. 2005; cited from earlier work
[9] = 500 μg fluorescein-conjugated peptide i.v., 3 h

## CNAGESSKNC (also: cyclic, ring type not given here, fluorescein conjugate, site not given here) [CLT2, cyclic decapeptide from phage library screened on plasma clots; tested as fluorescein conjugate]
[1]; uninjured
  homing to normal (intact) femoral artery: not to a normal femoral artery
[1]; wire injury 30 min earlier, 250 μg i.v.
  homing to injured femoral artery: homes
[2]
  cytotoxicity for endothelial cells: nor cytotoxic
[3]; [9]
  fluorescence in control / healthy organs: not in control organs
  fluorescence in tumors, whole tissues under blue light: intense fluorescence; also recorded: strong fluorescence
[3]; fluorescein-conjugated peptide i.v., 3 h, 400×
  histological distribution of peptide fluorescence within the tumor: distributed in a network pattern
[3]; unlabeled CLT2 in 5 fold excess
  tumor homing / fluorescence on co-injection with unlabeled CLT2: strongly reduced
[4]; injury 48 hours earlier, 500 μg i.v.
  homing to muscle crush injury: accumulate
[4]; uninjured
  homing to normal muscle: negative
[5]; incision 48 hours earlier
  homing to skin incision: accumulate
[5]; uninjured
  homing to normal skin: negative

## D(KLAKLAK)2 (KLAKLAKKLAKLAK; D-amino acids) [antimicrobial peptide]
[6]
  mitochondrial swelling: marked mitochondrial swelling

## Anginex
[7]
  aggregate formation in presence of fibrinogen: form aggregates
[8]
  aggregate formation in presence of fibronectin: form aggregates

## KAREC (also: fluorescein conjugate, site not given here) [reference compound]
[3]; [9]
  fluorescence in tumors, whole tissues under blue light: essentially no fluorescence
